Patent US20170008888A1 (KYORIN PHARMACEUTICAL CO., LTD., priority 2014, published 2017)
Read-outs that look alike come from different tables or passages of the source.

How the values were obtained:
[1] = tested on: ABL or ARG; assay: Probe-based (AX9989) kinase profiling in Jurkat lysate: ABL or ARG; assay type: binding
Summary of the method: (§1)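 Jurkat lysate (50 mM HEPES pH 7.5, 150 mM NaCl, 0.1% Triton X-100, 20 mM MnCl2) pre-incubated 15 min with compound at room temperature, then labeled with 5 μM acyl phosphate ATP probe AX9989. Tryptic probe-labeled peptides streptavidin-captured and quantified by LC/MS; percent inhibition from decreased fragment intensity versus untreated.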

[2] = tested on: human PBMCs; assay: Human PBMC TNF-α response to endotoxin (ELISA); assay type: cell-based; settings: 0.1 μg/ml LPS 16 h, read-out: EC50 for the inhibition of the human PBMC TNF-α response to endotoxin, ave. ± S.D.
Summary of the method: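 PBMCs at 2e6 cells/ml in RPMI 1640 with 10% charcoal-dextran-treated FBS were pre-treated 1 h at 37 °C with compound (4-point 1:5 dilution from 10 μM). Stimulation with 0.1 μg/ml E. coli 0111:B4 LPS for 16 h; TNF-α measured by ELISA (A450) in 25-fold diluted supernatant.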

[3] = target: T1, ERK5 (Homo sapiens, UniProt Q13164); assay: Probe-based (AX9989 acyl phosphate ATP probe) kinase profiling in Jurkat lysate: ERK5; assay type: binding; settings: for IC50: Jurkat lysate; for inhibition at 0.1 µM: screening concentration 0.1 μM
T1 construct: screened for activity against several kinases in Jurkat cells; endogenous in cells; host or cells: Jurkat cell lysate
T1 sequence (Q13164 whole entry): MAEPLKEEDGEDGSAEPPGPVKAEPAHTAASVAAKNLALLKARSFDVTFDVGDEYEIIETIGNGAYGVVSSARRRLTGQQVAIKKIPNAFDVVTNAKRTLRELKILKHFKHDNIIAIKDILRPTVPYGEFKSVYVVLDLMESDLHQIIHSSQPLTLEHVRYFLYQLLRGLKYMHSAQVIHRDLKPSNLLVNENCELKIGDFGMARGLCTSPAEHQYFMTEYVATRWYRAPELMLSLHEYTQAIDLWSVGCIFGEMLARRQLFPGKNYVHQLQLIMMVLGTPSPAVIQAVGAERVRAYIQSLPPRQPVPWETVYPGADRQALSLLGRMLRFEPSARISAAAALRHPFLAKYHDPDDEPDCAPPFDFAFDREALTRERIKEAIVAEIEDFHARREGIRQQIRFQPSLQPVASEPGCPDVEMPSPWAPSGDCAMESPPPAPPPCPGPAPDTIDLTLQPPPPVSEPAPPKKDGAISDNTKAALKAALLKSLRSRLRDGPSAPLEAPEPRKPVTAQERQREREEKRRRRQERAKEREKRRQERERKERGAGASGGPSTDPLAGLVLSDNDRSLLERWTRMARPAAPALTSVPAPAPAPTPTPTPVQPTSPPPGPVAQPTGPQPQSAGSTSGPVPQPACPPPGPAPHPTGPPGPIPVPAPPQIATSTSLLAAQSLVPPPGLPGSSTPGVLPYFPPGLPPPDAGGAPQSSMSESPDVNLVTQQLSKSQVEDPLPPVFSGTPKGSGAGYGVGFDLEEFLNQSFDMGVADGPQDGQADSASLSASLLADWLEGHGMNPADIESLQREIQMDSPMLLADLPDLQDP
Summary of the method: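 ERK5 IC50 values came from percent inhibition at the screening concentration, measured as loss of LC/MS signal of probe-labelled active-site peptides. Compound was added for 15 min at room temperature to Jurkat lysate (5 mg/ml, 20 mM MnCl2) before labelling with AX9989 ATP acyl phosphate probe at 5 μM.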

[4] = target: T2, TAO2 (Homo sapiens, UniProt Q9UL54); assay: Probe-based (AX9989) kinase profiling in Jurkat lysate: TAO2; assay type: binding; settings: for inhibition at 0.1 µM: screening concentration 0.1 μM
T2 construct: screened for activity against several kinases in Jurkat cells; endogenous in cells; host or cells: Jurkat cell lysate
T2 sequence (Q9UL54 1-1235): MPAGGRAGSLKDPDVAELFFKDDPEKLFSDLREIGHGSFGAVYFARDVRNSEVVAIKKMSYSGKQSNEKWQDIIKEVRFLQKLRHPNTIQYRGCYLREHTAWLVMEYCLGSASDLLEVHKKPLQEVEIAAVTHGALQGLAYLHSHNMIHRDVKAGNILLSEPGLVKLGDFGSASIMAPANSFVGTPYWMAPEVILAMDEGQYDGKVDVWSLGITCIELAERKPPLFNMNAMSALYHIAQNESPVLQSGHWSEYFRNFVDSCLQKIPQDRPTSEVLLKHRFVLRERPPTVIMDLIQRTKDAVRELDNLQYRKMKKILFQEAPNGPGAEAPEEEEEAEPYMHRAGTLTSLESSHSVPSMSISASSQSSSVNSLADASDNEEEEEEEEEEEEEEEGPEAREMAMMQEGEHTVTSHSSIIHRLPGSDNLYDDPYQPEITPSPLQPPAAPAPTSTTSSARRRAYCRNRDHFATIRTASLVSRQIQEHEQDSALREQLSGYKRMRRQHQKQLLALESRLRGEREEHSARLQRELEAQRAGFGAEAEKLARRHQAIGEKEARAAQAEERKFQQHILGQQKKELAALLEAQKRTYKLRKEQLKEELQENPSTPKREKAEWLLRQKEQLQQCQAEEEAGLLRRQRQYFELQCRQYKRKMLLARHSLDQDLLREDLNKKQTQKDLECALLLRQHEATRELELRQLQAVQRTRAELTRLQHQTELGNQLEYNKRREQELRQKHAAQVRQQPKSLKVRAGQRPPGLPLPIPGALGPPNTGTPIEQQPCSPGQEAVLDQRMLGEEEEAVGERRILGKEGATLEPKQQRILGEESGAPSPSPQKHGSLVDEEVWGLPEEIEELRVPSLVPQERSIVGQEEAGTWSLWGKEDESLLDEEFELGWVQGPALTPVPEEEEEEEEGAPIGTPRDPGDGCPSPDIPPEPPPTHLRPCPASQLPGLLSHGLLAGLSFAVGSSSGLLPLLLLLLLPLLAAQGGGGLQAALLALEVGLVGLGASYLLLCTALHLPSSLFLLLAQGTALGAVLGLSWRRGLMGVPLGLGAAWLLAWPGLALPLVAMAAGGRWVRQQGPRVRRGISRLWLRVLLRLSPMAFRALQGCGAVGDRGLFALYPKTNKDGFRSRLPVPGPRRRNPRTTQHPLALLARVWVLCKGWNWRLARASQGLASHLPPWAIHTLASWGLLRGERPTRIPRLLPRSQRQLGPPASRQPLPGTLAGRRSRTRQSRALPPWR
Summary of the method: as §1

[5] = target: T3, ACK (Homo sapiens, UniProt Q07912); assay: Probe-based (AX9989) kinase profiling in Jurkat lysate: ACK; assay type: binding; settings: for inhibition at 0.1 µM: screening concentration 0.1 μM
T3 construct: screened for activity against several kinases in Jurkat cells; endogenous in cells; host or cells: Jurkat cell lysate
T3 sequence (Q07912 whole entry): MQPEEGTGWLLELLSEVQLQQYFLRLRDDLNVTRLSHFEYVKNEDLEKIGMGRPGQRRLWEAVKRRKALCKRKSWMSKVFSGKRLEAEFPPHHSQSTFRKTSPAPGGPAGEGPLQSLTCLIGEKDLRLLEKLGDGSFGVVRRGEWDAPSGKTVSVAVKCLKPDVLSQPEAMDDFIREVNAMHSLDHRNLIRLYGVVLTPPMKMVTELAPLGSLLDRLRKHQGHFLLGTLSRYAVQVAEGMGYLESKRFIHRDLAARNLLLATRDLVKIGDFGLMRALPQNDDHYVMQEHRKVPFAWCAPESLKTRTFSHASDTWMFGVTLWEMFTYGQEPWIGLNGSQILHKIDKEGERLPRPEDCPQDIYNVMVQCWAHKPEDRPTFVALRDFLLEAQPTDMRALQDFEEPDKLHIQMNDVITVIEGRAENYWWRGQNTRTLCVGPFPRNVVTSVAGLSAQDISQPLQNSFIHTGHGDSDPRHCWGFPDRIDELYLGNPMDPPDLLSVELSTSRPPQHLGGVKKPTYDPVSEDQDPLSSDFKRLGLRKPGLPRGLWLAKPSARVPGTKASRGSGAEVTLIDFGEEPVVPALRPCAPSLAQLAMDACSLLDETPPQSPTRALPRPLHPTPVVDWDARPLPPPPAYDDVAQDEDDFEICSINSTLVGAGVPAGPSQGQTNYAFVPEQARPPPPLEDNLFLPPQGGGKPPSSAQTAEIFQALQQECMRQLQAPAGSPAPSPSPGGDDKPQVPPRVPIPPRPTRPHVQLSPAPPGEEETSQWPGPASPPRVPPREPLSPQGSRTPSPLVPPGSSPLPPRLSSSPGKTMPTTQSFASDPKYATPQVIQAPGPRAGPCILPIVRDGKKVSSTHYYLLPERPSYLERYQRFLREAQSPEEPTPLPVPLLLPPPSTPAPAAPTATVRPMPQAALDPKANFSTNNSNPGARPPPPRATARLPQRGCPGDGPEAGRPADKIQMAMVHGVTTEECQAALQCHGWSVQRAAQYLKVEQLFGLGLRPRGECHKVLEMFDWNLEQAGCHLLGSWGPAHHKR
Summary of the method: as §1

[6] = calculated from percent inhibition of AX9989 labeling and the screening concentration
[7] = screening concentration 1.0 μM, read-out: Kinase inhibition % at indicated screening concentration: ERK5
[8] = screening concentration 1.0 μM, read-out: Kinase inhibition % at indicated screening concentration: TAO2
[9] = screening concentration 1.0 μM, read-out: Kinase inhibition % at indicated screening concentration: ACK
[10] = calculated from percent inhibition and screening concentration, AX9989 probe
[11] = screening concentration 1 μM, read-out: ERK5 Inhibition % at indicated screening concentration
[12] = screening concentration 1 μM, read-out: TAO2 Inhibition % at indicated screening concentration
[13] = screening concentration 1 μM, read-out: ACK Inhibition % at indicated screening concentration
[14] = read-out: Kinase inhibition % at indicated screening concentration: ERK5
[15] = read-out: Kinase inhibition % at indicated screening concentration: TAO2
[16] = read-out: Kinase inhibition % at indicated screening concentration: ACK
[17] = screening concentration 10 μM, read-out: ERK5 Inhibition % at indicated screening concentration
[18] = screening concentration 10 μM, read-out: TAO2 Inhibition % at indicated screening concentration
[19] = screening concentration 10 μM, read-out: ACK Inhibition % at indicated screening concentration

Kinase inhibition % at indicated screening concentration: ABL or ARG ([1]; screening concentration 1.0 μM)	IC50 [3, 6]	inhibition at 1 µM [3, 7]	inhibition at 1 µM [4, 8]	inhibition at 1 µM [5, 9]	IC50 [3, 10]	Structure (SMILES)	EC50 [2]	further results
E (E is ≦35%)	≤ 0.05 µM	> 90%	≤ 35%	≤ 35%	–	CCOc1cc(C(=O)N2CCNCC2)ccc1Nc1cc2c(cn1)N(C)C(=O)c1ccccc1N2C [Compound 62]	0.72 µM	–
E (E is ≦35%)	0.101 to 0.5 µM	> 90%	≤ 35%	≤ 35%	–	CCOc1cc(C(=O)N2CCCN(C)CC2)ccc1Nc1cc2c(cn1)N(C)C(=O)c1ccccc1N2C [Compound 8]	0.65 µM	–
E (E is ≦35%)	0.101 to 0.5 µM	50 to 75%	≤ 35%	≤ 35%	–	CCOc1cc(C(=O)NC2CCOCC2)ccc1Nc1cc2c(cn1)N(C)C(=O)c1ccccc1N2C [Compound 80]	1.29 µM	–
–	–	–	–	–	0.05 to 0.1 µM	CC(C)Oc1cc(C(=O)N2CCN(C3CCN(C)CC3)CC2)ccc1Nc1cc2c(cn1)N(C)C(=O)c1ccccc1N2C [Compound T49]	0.3 ± 0.12 µM	ABL or ARG Inhibition % at indicated screening concentration ([1]; screening concentration 1 μM): E (E is ≦35%); inhibition at 1 µM [3, 11]: > 90%; inhibition at 1 µM [4, 12]: ≤ 35%; inhibition at 1 µM [5, 13]: ≤ 35%
E (E is ≦35%)	≤ 0.05 µM	> 90%	≤ 35%	≤ 35%	–	CCOc1cc(C(=O)N2CC[C@@H](N(C)C)C2)ccc1Nc1cc2c(cn1)N(C)C(=O)c1ccccc1N2C [Compound 115]	0.84 ± 0.53 µM	–
–	≤ 0.05 µM	–	–	–	–	CCOc1cc(C(=O)N2CCC(F)C2)ccc1Nc1cc2c(cn1)N(C)C(=O)c1occc1N2C (stereo not drawn) [Compound 72]	1.23 ± 0.15 µM	Kinase inhibition % at indicated screening concentration: ABL or ARG ([1]; screening concentration 0.1 μM): E (E is ≦35%); inhibition at 0.1 µM [3, 14]: 75 to 90%; inhibition at 0.1 µM [4, 15]: ≤ 35%; inhibition at 0.1 µM [5, 16]: ≤ 35%
–	≤ 0.05 µM	–	–	–	–	CCOc1cc(C(=O)N2CCN(CC3CC3)CC2)ccc1Nc1cc2c(cn1)N(C)C(=O)c1ccccc1N2C [Compound 10]	1.28 µM	Kinase inhibition % at indicated screening concentration: ABL or ARG ([1]; screening concentration 0.1 μM): E (E is ≦35%); inhibition at 0.1 µM [3, 14]: 75 to 90%; inhibition at 0.1 µM [4, 15]: ≤ 35%; inhibition at 0.1 µM [5, 16]: ≤ 35%
–	–	–	–	–	0.101 to 0.5 µM	CCOc1cc(C(=O)N2CCN(C3CCN(C)CC3)CC2)ccc1Nc1cc2c(cn1)N(C)C(=O)c1ccccc1O2 [Compound T98]	0.81 ± 0.92 µM	ABL or ARG Inhibition % at indicated screening concentration ([1]; screening concentration 10 μM): E (E is ≦35%); inhibition at 10 µM [3, 17]: > 90%; inhibition at 10 µM [4, 18]: ≤ 35%; inhibition at 10 µM [5, 19]: ≤ 35%
–	–	–	–	–	0.101 to 0.5 µM	CCOc1cc(C(=O)N[C@H]2CC[C@@H](O)CC2)ccc1Nc1cc2c(cn1)N(C)C(=O)c1ccccc1N2C [Compound T63]	0.75 µM	ABL or ARG Inhibition % at indicated screening concentration ([1]; screening concentration 1 μM): E (E is ≦35%); inhibition at 1 µM [3, 11]: 75 to 90%; inhibition at 1 µM [4, 12]: ≤ 35%; inhibition at 1 µM [5, 13]: ≤ 35%
E (E is ≦35%)	0.101 to 0.5 µM	75 to 90%	≤ 35%	≤ 35%	–	CN1C(=O)c2ccccc2N(C)c2cc(NC3CCC(C(=O)NC4CCOCC4)CC3)ncc21 (stereo not drawn) [Compound 64]	3.17 µM	–
–	–	–	–	–	0.101 to 0.5 µM	CCOc1cc(C(=O)N[C@H]2CC[C@H](O)CC2)ccc1Nc1cc2c(cn1)N(C)C(=O)c1ccccc1N2C [Compound T62]	0.49 ± 0.1 µM	ABL or ARG Inhibition % at indicated screening concentration ([1]; screening concentration 1 μM): E (E is ≦35%); inhibition at 1 µM [3, 11]: 75 to 90%; inhibition at 1 µM [4, 12]: ≤ 35%; inhibition at 1 µM [5, 13]: ≤ 35%
–	–	–	–	–	> 0.5 µM	CCOc1cc(C(=O)N2CCC(NCCF)C2)ccc1Nc1cc2c(cn1)N(C)C(C(F)(F)F)c1ccccc1N2C (stereo not drawn) [Compound T54]	7.14 µM	ABL or ARG Inhibition % at indicated screening concentration ([1]; screening concentration 10 μM): E (E is ≦35%); inhibition at 10 µM [3, 17]: 50 to 75%; inhibition at 10 µM [4, 18]: ≤ 35%; inhibition at 10 µM [5, 19]: ≤ 35%
–	–	–	–	–	≤ 0.05 µM	CCOc1cc(C(=O)N2CC[C@@H](NCCF)C2)ccc1Nc1cc2c(cn1)N(C)C(=O)c1ccccc1N2C [Compound T9]	0.59 µM	ABL or ARG Inhibition % at indicated screening concentration ([1]; screening concentration 1 μM): E (E is ≦35%); inhibition at 1 µM [3, 11]: > 90%; inhibition at 1 µM [4, 12]: ≤ 35%; inhibition at 1 µM [5, 13]: ≤ 35%
–	–	–	–	–	≤ 0.05 µM	CN1CCC(N2CCN(C(=O)c3ccc(Nc4cc5c(cn4)N(C)C(=O)c4ccccc4N5C)c(F)c3)CC2)CC1 [Compound T70]	2.09 µM	ABL or ARG Inhibition % at indicated screening concentration ([1]; screening concentration 1 μM): E (E is ≦35%); inhibition at 1 µM [3, 11]: > 90%; inhibition at 1 µM [4, 12]: ≤ 35%; inhibition at 1 µM [5, 13]: ≤ 35%
–	≤ 0.05 µM	–	–	–	–	COc1cc(C(=O)N2CCC(N(C)C)C2)ccc1Nc1cc2c(cn1)N(C)C(=O)c1ccccc1N2C (stereo not drawn) [Compound 70]	2.1 µM	Kinase inhibition % at indicated screening concentration: ABL or ARG ([1]; screening concentration 0.1 μM): E (E is ≦35%); inhibition at 0.1 µM [3, 14]: 50 to 75%; inhibition at 0.1 µM [4, 15]: ≤ 35%; inhibition at 0.1 µM [5, 16]: ≤ 35%
–	≤ 0.05 µM	–	–	–	–	CN1C(=O)c2ccccc2N(C)c2cc(Nc3ccc(C(=O)N4CC[C@@H](N(C)C)C4)cc3F)ncc21 [Compound 110]	1.76 ± 0.5 µM	Kinase inhibition % at indicated screening concentration: ABL or ARG ([1]; screening concentration 10.0 μM): E (E is ≦35%); inhibition at 10 µM ([3]; screening concentration 10.0 μM, read-out: Kinase inhibition % at indicated screening concentration: ERK5): > 90%; inhibition at 10 µM ([4]; screening concentration 10.0 μM, read-out: Kinase inhibition % at indicated screening concentration: TAO2): 50 to 75%; inhibition at 10 µM ([5]; screening concentration 10.0 μM, read-out: Kinase inhibition % at indicated screening concentration: ACK): ≤ 35%
–	≤ 0.05 µM	–	–	–	–	CCOc1cc(C(=O)N2CCNC[C@H]2C)ccc1Nc1cc2c(cn1)N(C)C(=O)c1ccccc1N2C [Compound 82]	1.54 µM	Kinase inhibition % at indicated screening concentration: ABL or ARG ([1]; screening concentration 0.1 μM): E (E is ≦35%); inhibition at 0.1 µM [3, 14]: 75 to 90%; inhibition at 0.1 µM [4, 15]: ≤ 35%; inhibition at 0.1 µM [5, 16]: ≤ 35%
E (E is ≦35%)	≤ 0.05 µM	> 90%	≤ 35%	≤ 35%	–	CCOc1cc(C(=O)N2CCC(N3CCCC3)CC2)ccc1Nc1cc2c(cn1)N(C)C(=O)c1ccccc1N2C [Compound 46, 3-(2-Ethoxy-4-(4-(pyrrolidin-1-yl)piperidine-1-carbonyl)phenylamino)-5,11-dimethyl-5H-benzo[e]pyrido[3,4-b][1,4]diazepin-10(11H)-one]	0.47 µM	–
